Source: ChEMBL document CHEMBL1158714, “Communiols E-H: new polyketide metabolites from the coprophilous fungus Podospora communis” (J Nat Prod, 2005)
The source made the active and inactive calls.

Experiments:
Assay type in all cases: functional, organism-based
Candida albicans = test: Antimicrobial activity against Candida albicans ATCC 90029 at 200 ug/disk
Bacillus subtilis = test: Antimicrobial activity against Bacillus subtilis ATCC 6051 at 200 ug/disk
Staphylococcus aureus = test: Antimicrobial activity against Staphylococcus aureus ATCC 29213 at 200 ug/disk

Measured: Activity

CC[C@@H]1O[C@H]1C[C@H]1CC=C(CO)[C@H]1O
inactive: all assays above

CC[C@H](O)[C@@H]1C[C@H]2CC[C@H](CO)[C@H]2O1
inactive: all assays above

CC[C@H](O)[C@@H]1C[C@@H](C/C=C/C=O)C(=O)O1
inactive: all assays above

CC[C@H](O)[C@@H]1C[C@H]2CC=C(CO)[C@H]2O1
inactive: all assays above
